According to patent US20030106085A1, “Disruption of the prostaglandin E synthase 2 gene” (Pfizer Inc., priority 2001, published 2003):

Columns and labels:
[1] = system: PGES2 KO and wild type mice; assay: Acetic acid-induced writhing (acute inflammation/pain model); type: in vivo; conditions: 10 mg/kg orally, one hour before 0.7% acetic acid i.p., vs vehicle
Experimental: PGES2 KO mice were profiled in two experimental models of inflammation, collagen-induced arthritis (chronic inflammation model) and acetic acid-induced writhing (acute inflammation/pain model). All experiments were performed with age/sex-matched animals propagated on a DBA1/lacJ genetic background. This genetic background is optimal for collagen-induced arthritis (CIA). The phenotype in CIA was further profiled by characterizing the immune responses of PGES2 KO and wild type animals by assessing antibody production and delayed-type hypersensitivity reactions. In summary, results of the CIA and acetic acid-induced writhing models indicate a role for PGES2 in PGE2-mediated chronic inflammation, acute inflammation, and acute inflammatory pain detection as opposed to neuropathic pain detection. Mice were randomized and dosed orally with either vehicle (0.5% (w/w) methylcellulose, Sigma Chemical, #M0512) or 10 mg/kg piroxicam (Sigma Chemical, #P5654). One hour later, 16 μl/g body weight of 0.7% acetic acid was administered intraperitoneally. The mice were placed in a 5-compartment box and the number of stretches was counted for 20 minutes following acetic acid injection.

[2] = system: PGES2 KO clone #22F ES cell-derived macrophages; assay: Rescue of wild type phenotype (cell density) in PGES2 KO ES cell-derived macrophages by PGE2 added to the media; type: cell-based, murine
Experimental: DBA-252 WT (+/+) and PGES KO (−/−) ES cell clones #22D, #22F and #70V were used to develop ES cell in vitro differentiated (IVD) macrophages. WT and KO PGES2 ES cell clones were maintained without PEF feeders in SCML. Two days prior to embryoid body (EB) formation, all ES cell lines were switched to l-SCML medium that contained a base medium of Iscove's MDM (ILTI, #31980-030) supplemented with 15% ES cell qualified fetal calf serum, 0.2 mM L-glutamine, 0.1 mM MEM non-essential amino acids, 1000 u/ml recombinant murine leukemia inhibitory factor, 50 μg/ml Gentamycin and 0.1 mM 2-Mercaptoethanol (Sigma #M-7522).
Embryoid body stage: The WT and KO ES cell clones were dissociated and grown in suspension culture in bacteriology 100 mm dishes in MacEB medium that contained the base medium Iscove's MDM supplemented with 15% ES cell qualified fetal calf serum, 2 mM L-glutamine, 300 μg transferrin (ILTI, #13008-016), 50 μg/ml L-ascorbic acid (Sigma Chemical, #A-4403), 5% PFHM-II (ILTI, #12040-093), 4×10^−4 M monothioglycerol (MTG), and 50 μg/ml Gentamycin. ES cells were grown in suspension for 6 days to form the EB cell aggregates.
Precursor macrophage stage: The EBs were dissociated on day 6 and plated in tissue culture dishes in Mac I medium that contained the base medium Iscove's MDM supplemented with 10% FBS (ILTI, #10439-024), 5% PFHM-II (ILTI, #12040-093), 2 mM L-glutamine, 3 ng/ml M-CSF (Sigma #M-9170), 1 ng/ml IL-3 (PeproTech, Inc., Rocky Hill, N.J., #213-13) and 50 μg/ml Gentamycin. When this cell population became confluent, the macrophage precursors developed as non-adherent clusters and could be harvested every other day from day 14 through day 30.
ES cell-derived macrophages: Non-adherent clusters of macrophage precursors were harvested from the media by centrifugation. Cell pellets were resuspended in Mac II media that contained the base medium Iscove's MDM supplemented with 10% FBS, 5% PFHM-II, 2 mM L-glutamine, 3 ng/ml M-CSF, and 50 μg/ml Gentamycin. […]

Compound: CN1C(C(=O)Nc2ccccn2)=C(O)c2ccccc2S1(=O)=O [piroxicam]
- pain response (number of stretches counted for 20 minutes following acetic acid injection) ([1]; PGES2 KO mice): had no effect
- pain response (number of stretches counted for 20 minutes following acetic acid injection) ([1]; wild type mice): reduced the response

Compound: CCCCC[C@H](O)/C=C/[C@H]1[C@H](O)CC(=O)[C@@H]1C/C=C\CCCC(=O)O [PGE2, Prostaglandin E2]
- macrophage density ([2]; PGES2 KO clone 22F macrophages cultured in 10.0 μM PGE2, added at all stages of differentiation): approximately 75 % of wild type
- macrophage density compared to wild type ([2]; PGES2 KO clone #22F macrophages cultured in 0.1 μM PGE2, added at all stages of differentiation): equivalent in density to wild type
- macrophage density compared to wild type ([2]; PGES2 KO clone #22F macrophages cultured in 1.0 μM PGE2, added at all stages of differentiation): equivalent in density to wild type
